Results published in patent US20250026745A1 (Bluejay Therapeutics, Inc., priority 2023, published 2025).

Biological target: recombinant 17β-HSD13 protein (Homo sapiens (Human), UniProt Q7Z5P4)
Test: 17β-HSD13 biochemical assay (NAD+/NADH Glo chemiluminescence)
Details: 17β-HSD13 50 nM, NAD+ 10 mM, β-estradiol 20 μM, 2 hours room temperature
Experimental: 17β-HSD13 biochemical assays are generically described in patents WO 2022/020730, WO 2021/003295, and WO 2023/023310. More specifically, recombinant 17β-HSD13 protein was assayed in a buffer containing 200 mM Tris pH 7.5, 0.01% Triton X-100, and 0.02% BSA into a 384-well assay plate. Compounds were incubated with 17β-HSD13 (final 50 nM) and NAD+ (final 10 mM) at room temperature for 1 h prior to substrate addition. The assay reaction was then initiated by addition of β-estradiol (final 20 μM), and the reaction mixture was incubated for 2 hours at room temperature. Product formation was detected with chemiluminescence by adding equal volume of NAD+/NADH Glo reagent (Promega, #G9062) and read on a PHERAstar microplate reader (BMG LABTECH). IC50 values were determined with GraphPad Prism®, where log-transformed concentration values and the inhibition data were fitted to a four-parameter logistic equation. Y=Bottom+(Top−Bottom)/(1+10^((Log IC50−X)*HillSlope)). The original, % control, or % inhibition data are represented by Y along with their minimal (Bottom) and maximal (Top) values. The inhibitor concentration is represented by X, IC50 is the concentration at 50% maximal value, and Hill Slope is the slope factor.

Chain of recombinant 17β-HSD13 protein (Q7Z5P4 20-300): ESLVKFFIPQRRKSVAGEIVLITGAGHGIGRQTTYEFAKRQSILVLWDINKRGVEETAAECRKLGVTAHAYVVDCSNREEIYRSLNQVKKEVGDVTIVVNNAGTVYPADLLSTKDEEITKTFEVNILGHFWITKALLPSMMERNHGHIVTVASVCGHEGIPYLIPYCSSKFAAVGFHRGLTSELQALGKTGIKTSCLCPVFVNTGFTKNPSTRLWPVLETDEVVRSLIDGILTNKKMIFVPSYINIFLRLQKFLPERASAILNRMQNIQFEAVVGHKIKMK

First: O=C1N(c2ccccc2)C(=O)C2(CC2)N1Cc1nnc(-c2ccc(F)c(O)c2F)s1 [Compound I-85, 4-((5-(2,4-difluoro-3-hydroxyphenyl)-1,3,4-thiadiazol-2-yl)methyl)-6-phenyl-4,6-diazaspiro[2.4]heptane-5,7-dione]
Second: O=C1N(CCc2ccccc2)C(=O)C2(CC2)N1Cc1nnc(-c2ccc(F)c(O)c2Cl)s1 [Compound I-37, 4-((5-(2-chloro-4-fluoro-3-hydroxyphenyl)-1,3,4-thiadiazol-2-yl)methyl)-6-phenethyl-4,6-diazaspiro[2.4]heptane-5,7-dione]
The IC50 of the first is 2.5-fold lower: 13.2 nM for the first, 32.7 nM for the second.

Going from `N#Cc1ccccc1CN1C(=O)N(Cc2nnc(-c3ccc(F)c(O)c3Cl)s2)C2(CC2)C1=O` [Compound I-38, 2-((4-((5-(2-chloro-4-fluoro-3-hydroxyphenyl)-1,3,4-thiadiazol-2-yl)methyl)-5,7-dioxo-4,6-diazaspiro[2.4]heptan-6-yl)methyl)benzonitrile] to `COc1ccc(CN2C(=O)N(Cc3nnc(-c4ccc(F)c(O)c4Cl)s3)C3(CC3)C2=O)c(F)c1` [Compound I-44, 4-((5-(2-chloro-4-fluoro-3-hydroxyphenyl)-1,3,4-thiadiazol-2-yl)methyl)-6-(2-fluoro-4-methoxybenzyl)-4,6-diazaspiro[2.4]heptane-5,7-dione], the IC50 falls from 39.4 nM to 7.38 nM (5.3-fold). The second is the more potent here.

Compared with `O=C1N(CC(F)(F)F)C(=O)C2(CC2)N1Cc1nnc(-c2ccc(F)c(O)n2)s1` [Compound I-73, 4-((5-(5-fluoro-6-hydroxypyridin-2-yl)-1,3,4-thiadiazol-2-yl)methyl)-6-(2,2,2-trifluoroethyl)-4,6-diazaspiro[2.4]heptane-5,7-dione], `O=C1N(CC(F)(F)F)C(=O)C2(CC2)N1Cc1nnc(-c2cc(C(F)(F)F)c(F)c(O)n2)s1` [Compound I-60, 4-((5-(5-fluoro-6-hydroxy-4-(trifluoromethyl)pyridin-2-yl)-1,3,4-thiadiazol-2-yl)methyl)-6-(2,2,2-trifluoroethyl)-4,6-diazaspiro[2.4]heptane-5,7-dione] is 2.1-fold higher in IC50: 1390 nM for the first, 2960 nM for the second. The first is the more potent here.

`CCN1C(=O)N(Cc2nnc(-c3cncc(O)c3Cl)s2)C2(CC2)C1=O` [Compound I-11, 4-((5-(4-chloro-5-hydroxypyridin-3-yl)-1,3,4-thiadiazol-2-yl)methyl)-6-ethyl-4,6-diazaspiro[2.4]heptane-5,7-dione] and `O=C1N(CC(F)(F)F)C(=O)C2(CC2)N1Cc1nnc(-c2cncc(O)c2Cl)s1` [Compound I-18, 4-((5-(4-chloro-5-hydroxypyridin-3-yl)-1,3,4-thiadiazol-2-yl)methyl)-6-(2,2,2-trifluoroethyl)-4,6-diazaspiro[2.4]heptane-5,7-dione] are within 1.5-fold of each other in IC50: 245 nM for the first, 193 nM for the second.

Going from `CCN1C(=O)N(Cc2nnc(-c3ccc(F)c(O)c3F)s2)C(C)(C)C1=O` [Compound I-8, 1-((5-(2,4-difluoro-3-hydroxyphenyl)-1,3,4-thiadiazol-2-yl)methyl)-3-ethyl-5,5-dimethylimidazolidine-2,4-dione] to `CCCCN1C(=O)N(Cc2nnc(-c3ccc(F)c(O)c3F)s2)C2(CC2)C1=O` [Compound I-28, 6-butyl-4-((5-(2,4-difluoro-3-hydroxyphenyl)-1,3,4-thiadiazol-2-yl)methyl)-4,6-diazaspiro[2.4]heptane-5,7-dione], the IC50 falls from 90.8 nM to 8.11 nM (11-fold).

Going from `O=C1N(CC(F)(F)F)C(=O)C2(CC2)N1Cc1nnc(-c2ccc(Cl)c(O)c2F)s1` [Compound I-24, 4-((5-(4-chloro-2-fluoro-3-hydroxyphenyl)-1,3,4-thiadiazol-2-yl)methyl)-6-(2,2,2-trifluoroethyl)-4,6-diazaspiro[2.4]heptane-5,7-dione] to `O=C1N(CC2(C(F)(F)F)CC2)C(=O)C2(CC2)N1Cc1nnc(-c2ccc(Cl)c(O)c2F)s1` [Compound I-25, 4-((5-(4-chloro-2-fluoro-3-hydroxyphenyl)-1,3,4-thiadiazol-2-yl)methyl)-6-((1-(trifluoromethyl)cyclopropyl)methyl)-4,6-diazaspiro[2.4]heptane-5,7-dione], the IC50 rises from 71.4 nM to 146 nM (2-fold). The first is the more potent here.

Compared with `CCN1C(=O)N(Cc2nnc(-c3cnc(Cl)c(O)c3)s2)C2(CC2)C1=O` [Compound I-12, 4-((5-(6-chloro-5-hydroxypyridin-3-yl)-1,3,4-thiadiazol-2-yl)methyl)-6-ethyl-4,6-diazaspiro[2.4]heptane-5,7-dione], `CCN1C(=O)N(Cc2nnc(-c3cnc(F)c(O)c3)s2)C2(CC2)C1=O` [Compound I-2, 6-ethyl-4-((5-(6-fluoro-5-hydroxypyridin-3-yl)-1,3,4-thiadiazol-2-yl)methyl)-4,6-diazaspiro[2.4]heptane-5,7-dione] is 2.1-fold lower in IC50: 323 nM for the first, 156 nM for the second. The second is the more potent here.

Going from `CC(C)(C)N1C(=O)N(Cc2nnc(-c3ccc(F)c(O)c3F)s2)C2(CC2)C1=O` [Compound I-84, 6-(tert-butyl)-4-((5-(2,4-difluoro-3-hydroxyphenyl)-1,3,4-thiadiazol-2-yl)methyl)-4,6-diazaspiro[2.4]heptane-5,7-dione] to `C[C@@H](CO)N1C(=O)N(Cc2nnc(-c3ccc(F)c(O)c3F)s2)C2(CC2)C1=O` [Compound I-47, (S)-4-((5-(2,4-difluoro-3-hydroxyphenyl)-1,3,4-thiadiazol-2-yl)methyl)-6-(1-hydroxypropan-2-yl)-4,6-diazaspiro[2.4]heptane-5,7-dione], the IC50 rises from 4.07 nM to 53 nM (13-fold). The first is the more potent here.

`O=C1N(Cc2ccccc2)C(=O)C2(CC2)N1Cc1nnc(-c2nc(C(F)(F)F)c(F)c(O)c2F)s1` [Compound I-59, 6-benzyl-4-((5-(3,5-difluoro-4-hydroxy-6-(trifluoromethyl)pyridin-2-yl)-1,3,4-thiadiazol-2-yl)methyl)-4,6-diazaspiro[2.4]heptane-5,7-dione] and `O=C1N(Cc2ccccc2)C(=O)C2(CC2)N1Cc1nnc(-c2ccc(F)c(O)n2)s1` [Compound I-74, 6-benzyl-4-((5-(5-fluoro-6-hydroxypyridin-2-yl)-1,3,4-thiadiazol-2-yl)methyl)-4,6-diazaspiro[2.4]heptane-5,7-dione] are within 1.5-fold of each other in IC50: 161 nM for the first, 147 nM for the second.

Going from `C[C@@H](c1ccccc1)N1C(=O)N(Cc2nnc(-c3ccc(F)c(O)n3)s2)C2(CC2)C1=O` [Compound I-80, (S)-4-((5-(5-fluoro-6-hydroxypyridin-2-yl)-1,3,4-thiadiazol-2-yl)methyl)-6-(1-phenylethyl)-4,6-diazaspiro[2.4]heptane-5,7-dione] to `O=C1N([C@@H](c2ccccc2)C(F)(F)F)C(=O)C2(CC2)N1Cc1nnc(-c2ccc(F)c(O)n2)s1` [Compound I-88, (S)-4-((5-(5-fluoro-6-hydroxypyridin-2-yl)-1,3,4-thiadiazol-2-yl)methyl)-6-(2,2,2-trifluoro-1-phenylethyl)-4,6-diazaspiro[2.4]heptane-5,7-dione], the IC50 falls from 76.8 nM to 29.1 nM (2.6-fold).

First: CC#CC(N1C(=O)N(Cc2nnc(-c3ccc(F)c(O)c3F)s2)C2(CC2)C1=O)C(F)(F)F (centres unmarked) [Compound I-94, 4-((5-(2,4-difluoro-3-hydroxyphenyl)-1,3,4-thiadiazol-2-yl)methyl)-6-(1,1,1-trifluoropent-3-yn-2-yl)-4,6-diazaspiro[2.4]heptane-5,7-dione]
Second: C[C@@H](COCC(=O)O)N1C(=O)N(Cc2nnc(-c3ccc(F)c(O)c3F)s2)C2(CC2)C1=O [Compound I-49]
The IC50 of the first is 63-fold lower: 6.77 nM for the first, 426 nM for the second.

`CC[C@@H](C)N1C(=O)N(Cc2nnc(-c3ccc(F)c(O)n3)s2)C2(CC2)C1=O` [Compound I-77, (R)-6-(sec-butyl)-4-((5-(5-fluoro-6-hydroxypyridin-2-yl)-1,3,4-thiadiazol-2-yl)methyl)-4,6-diazaspiro[2.4]heptane-5,7-dione] and `CC[C@H](C)N1C(=O)N(Cc2nnc(-c3ccc(F)c(O)n3)s2)C2(CC2)C1=O` [Compound I-78, (S)-6-(sec-butyl)-4-((5-(5-fluoro-6-hydroxypyridin-2-yl)-1,3,4-thiadiazol-2-yl)methyl)-4,6-diazaspiro[2.4]heptane-5,7-dione] are within 1.5-fold of each other in IC50: 1060 nM for the first, 934 nM for the second.

Compared with `CNC(=O)c1ccc(CN2C(=O)N(Cc3nnc(-c4ccc(F)c(O)c4F)s3)C3(CC3)C2=O)cc1` [Compound I-93, 4-((4-((5-(2,4-difluoro-3-hydroxyphenyl)-1,3,4-thiadiazol-2-yl)methyl)-5,7-dioxo-4,6-diazaspiro[2.4]heptan-6-yl)methyl)-N-methylbenzamide], `C[C@H](COCC(=O)O)N1C(=O)N(Cc2nnc(-c3ccc(F)c(O)c3F)s2)C2(CC2)C1=O` [Compound I-48] is 14-fold higher in IC50: 75.4 nM for the first, 1060 nM for the second. The first is the more potent here.

Going from `O=C1N(Cc2nnc(-c3ccc(F)c(O)c3Cl)s2)C2(CC2)C(=O)N1C1(c2ccccc2)CC1` [Compound I-103, 4-((5-(2-chloro-4-fluoro-3-hydroxyphenyl)-1,3,4-thiadiazol-2-yl)methyl)-6-(1-phenylcyclopropyl)-4,6-diazaspiro[2.4]heptane-5,7-dione] to `O=C1NC(=O)C2(CC2)N1Cc1nnc(-c2ccc(F)c(O)c2F)s1` [Compound I-27, 4-((5-(2,4-difluoro-3-hydroxyphenyl)-1,3,4-thiadiazol-2-yl)methyl)-4,6-diazaspiro[2.4]heptane-5,7-dione], the IC50 rises from 4.39 nM to 355 nM (81-fold).

With `CC(C)N1C(=O)N(Cc2nnc(-c3ccc(F)c(O)n3)s2)C2(CC2)C1=O` [Compound I-76, 4-((5-(5-fluoro-6-hydroxypyridin-2-yl)-1,3,4-thiadiazol-2-yl)methyl)-6-isopropyl-4,6-diazaspiro[2.4]heptane-5,7-dione] the IC50 was 1390 nM.
